Experiment in all cases: Tyrosine kinase inhibition assay
What all share (format): biochemical
Settings in all cases: single concentration 1.0 μM, read-out: percent inhibition

Test [1] addresses ABL2 (Arg) (Homo sapiens, UniProt P42684). As to the method:
(§1) Tyrosine kinase inhibition assays were performed at ThermoFisher Life Technologies (Madison, WI, USA) using standard protocols (SelectScreen Biochemical Profiling Service, Thermo Fisher Scientific). ATP concentrations used were at the apparent Km. Test compounds were screened in 1% dimethylsulffoxide (DMSO) (final concentration) in the well. For 10-point titrations, 3-fold serial dilutions were conducted from the starting concentration of […]. All Peptide/Kinase Mixtures were diluted to a 2× working concentration in the appropriate Kinase Buffer. All ATP Solutions were diluted to a 4× working concentration in Kinase Buffer (50 mM HEPES pH 7.5, 0.01% BRIJ-35, 10 mM MgCl2, 1 mM EGTA). The apparent ATP Km was previously determined using a Z′-LYTE assay. The Development Reagent was diluted in Development Buffer.
(§2) The inhibition activities of compounds were determined in biochemical assays using single concentration (1.0 μM) measurements. The results were provided as percent inhibition values. A compound displaying a percent inhibition value of greater 80% was defined as a hit. 99 different tyrosine kinases were used.

In test [2] the target is DDR1 (Homo sapiens, UniProt Q08345). As to the method: as §1, §2
Test [3] has as its target EPHA7 (Homo sapiens, UniProt Q15375). As to the method:
as §1, §2

For test [4], the target named is T1, JAK3 (Homo sapiens, UniProt P52333).
T1 sequence (P52333 1-1124): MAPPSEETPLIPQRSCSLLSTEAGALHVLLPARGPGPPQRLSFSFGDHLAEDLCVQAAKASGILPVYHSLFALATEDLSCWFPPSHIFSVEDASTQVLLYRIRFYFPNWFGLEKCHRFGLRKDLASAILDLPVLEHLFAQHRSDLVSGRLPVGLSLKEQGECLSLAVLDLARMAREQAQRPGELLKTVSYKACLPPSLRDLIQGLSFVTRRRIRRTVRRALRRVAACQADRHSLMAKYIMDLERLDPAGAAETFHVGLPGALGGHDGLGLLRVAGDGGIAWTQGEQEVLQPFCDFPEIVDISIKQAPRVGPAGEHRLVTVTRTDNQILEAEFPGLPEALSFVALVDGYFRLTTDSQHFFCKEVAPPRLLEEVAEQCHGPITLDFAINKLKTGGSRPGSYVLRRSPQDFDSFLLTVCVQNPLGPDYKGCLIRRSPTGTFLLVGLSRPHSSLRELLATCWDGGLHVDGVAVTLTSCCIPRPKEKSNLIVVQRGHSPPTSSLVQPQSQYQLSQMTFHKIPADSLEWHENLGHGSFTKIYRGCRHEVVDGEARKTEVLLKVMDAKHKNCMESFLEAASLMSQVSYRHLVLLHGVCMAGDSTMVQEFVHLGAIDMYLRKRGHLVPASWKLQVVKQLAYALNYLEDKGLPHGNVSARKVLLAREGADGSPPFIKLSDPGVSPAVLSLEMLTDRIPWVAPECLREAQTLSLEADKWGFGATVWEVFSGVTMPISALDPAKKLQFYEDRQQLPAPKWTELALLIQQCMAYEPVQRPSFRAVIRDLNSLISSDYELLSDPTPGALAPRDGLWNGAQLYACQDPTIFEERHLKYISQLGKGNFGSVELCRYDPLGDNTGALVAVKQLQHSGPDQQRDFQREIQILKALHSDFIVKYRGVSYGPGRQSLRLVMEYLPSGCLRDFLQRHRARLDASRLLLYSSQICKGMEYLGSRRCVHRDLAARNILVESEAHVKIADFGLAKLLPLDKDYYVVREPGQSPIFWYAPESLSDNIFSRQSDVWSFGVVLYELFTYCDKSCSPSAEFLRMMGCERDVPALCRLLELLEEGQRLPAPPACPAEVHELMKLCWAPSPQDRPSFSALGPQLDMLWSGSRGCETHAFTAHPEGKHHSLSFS
As to the method:
as §1, §2

Test [5] concerns the target ERBB4 (HER4) (Homo sapiens, UniProt Q15303). As to the method: as §1, §2
The target of test [6] is SRMS (Srm) (Homo sapiens, UniProt Q9H3Y6). As to the method:
as §1, §2

Test [7] concerns the target T2, MAP4K3 (GLK) (Homo sapiens, UniProt Q8IVH8).
T2 sequence (Q8IVH8 1-894): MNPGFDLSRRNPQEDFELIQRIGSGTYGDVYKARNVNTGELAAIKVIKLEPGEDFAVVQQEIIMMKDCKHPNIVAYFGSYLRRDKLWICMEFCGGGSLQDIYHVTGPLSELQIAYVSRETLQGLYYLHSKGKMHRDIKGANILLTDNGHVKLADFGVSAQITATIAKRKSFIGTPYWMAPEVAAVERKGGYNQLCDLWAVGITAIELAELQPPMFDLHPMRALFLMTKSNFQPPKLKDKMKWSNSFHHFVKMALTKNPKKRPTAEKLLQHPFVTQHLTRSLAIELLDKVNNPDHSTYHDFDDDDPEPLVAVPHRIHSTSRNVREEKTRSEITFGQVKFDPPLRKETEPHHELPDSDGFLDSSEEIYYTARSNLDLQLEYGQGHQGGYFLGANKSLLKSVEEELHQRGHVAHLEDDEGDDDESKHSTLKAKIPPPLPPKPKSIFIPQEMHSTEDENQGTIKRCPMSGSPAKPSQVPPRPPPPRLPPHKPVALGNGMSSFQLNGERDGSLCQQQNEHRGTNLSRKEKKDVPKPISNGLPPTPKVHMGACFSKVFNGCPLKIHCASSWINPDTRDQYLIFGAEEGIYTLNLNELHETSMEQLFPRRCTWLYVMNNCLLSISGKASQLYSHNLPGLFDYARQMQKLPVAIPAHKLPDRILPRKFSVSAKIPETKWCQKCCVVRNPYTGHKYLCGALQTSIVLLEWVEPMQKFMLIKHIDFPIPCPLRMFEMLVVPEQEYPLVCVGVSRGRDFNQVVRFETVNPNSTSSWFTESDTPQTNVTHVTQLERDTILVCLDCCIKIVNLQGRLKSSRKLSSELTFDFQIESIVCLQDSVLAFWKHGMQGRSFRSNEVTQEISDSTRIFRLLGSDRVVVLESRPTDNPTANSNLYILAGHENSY
As to the method: as §1, §2

The target in test [8] is PTK6 (Brk) (Homo sapiens, UniProt Q13882). As to the method: as §1, §2
In test [9] the target is BRAF V599E (Homo sapiens, UniProt P15056, V600E). As to the method: as §1, §2

Each structure is given as a SMILES string.

For orientation: inhibition means the relative decrease from the control value, in per cent.

ABL2 (Arg), sequence (P42684 whole entry): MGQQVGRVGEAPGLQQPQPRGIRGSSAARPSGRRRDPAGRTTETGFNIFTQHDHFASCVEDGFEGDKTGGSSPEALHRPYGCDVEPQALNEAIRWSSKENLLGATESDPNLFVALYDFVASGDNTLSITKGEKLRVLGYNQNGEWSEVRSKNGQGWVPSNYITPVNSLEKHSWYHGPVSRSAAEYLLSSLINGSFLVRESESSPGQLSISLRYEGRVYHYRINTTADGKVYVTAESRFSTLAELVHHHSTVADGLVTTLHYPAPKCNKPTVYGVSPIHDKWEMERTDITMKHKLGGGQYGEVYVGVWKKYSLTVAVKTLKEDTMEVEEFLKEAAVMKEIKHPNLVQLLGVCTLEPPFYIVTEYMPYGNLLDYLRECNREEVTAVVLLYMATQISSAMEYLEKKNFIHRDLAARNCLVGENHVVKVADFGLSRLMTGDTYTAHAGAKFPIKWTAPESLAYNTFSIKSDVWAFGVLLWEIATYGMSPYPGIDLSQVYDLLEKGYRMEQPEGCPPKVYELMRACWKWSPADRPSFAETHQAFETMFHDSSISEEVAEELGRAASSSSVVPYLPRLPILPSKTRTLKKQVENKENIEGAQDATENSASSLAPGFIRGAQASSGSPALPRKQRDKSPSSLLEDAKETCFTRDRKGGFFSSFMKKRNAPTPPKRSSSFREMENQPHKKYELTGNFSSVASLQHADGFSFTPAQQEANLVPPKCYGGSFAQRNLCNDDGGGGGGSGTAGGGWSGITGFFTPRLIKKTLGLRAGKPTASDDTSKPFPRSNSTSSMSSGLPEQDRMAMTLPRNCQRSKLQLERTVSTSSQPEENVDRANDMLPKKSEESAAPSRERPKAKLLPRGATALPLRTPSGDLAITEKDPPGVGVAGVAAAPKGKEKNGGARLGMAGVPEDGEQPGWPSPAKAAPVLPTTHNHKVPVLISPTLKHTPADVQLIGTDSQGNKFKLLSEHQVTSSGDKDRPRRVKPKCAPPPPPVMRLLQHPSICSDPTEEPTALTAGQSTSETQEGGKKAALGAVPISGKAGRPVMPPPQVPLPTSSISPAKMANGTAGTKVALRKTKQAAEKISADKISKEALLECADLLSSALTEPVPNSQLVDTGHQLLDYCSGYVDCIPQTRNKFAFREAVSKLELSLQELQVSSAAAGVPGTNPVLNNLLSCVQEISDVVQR
EPHA7, sequence (Q15375 28-998): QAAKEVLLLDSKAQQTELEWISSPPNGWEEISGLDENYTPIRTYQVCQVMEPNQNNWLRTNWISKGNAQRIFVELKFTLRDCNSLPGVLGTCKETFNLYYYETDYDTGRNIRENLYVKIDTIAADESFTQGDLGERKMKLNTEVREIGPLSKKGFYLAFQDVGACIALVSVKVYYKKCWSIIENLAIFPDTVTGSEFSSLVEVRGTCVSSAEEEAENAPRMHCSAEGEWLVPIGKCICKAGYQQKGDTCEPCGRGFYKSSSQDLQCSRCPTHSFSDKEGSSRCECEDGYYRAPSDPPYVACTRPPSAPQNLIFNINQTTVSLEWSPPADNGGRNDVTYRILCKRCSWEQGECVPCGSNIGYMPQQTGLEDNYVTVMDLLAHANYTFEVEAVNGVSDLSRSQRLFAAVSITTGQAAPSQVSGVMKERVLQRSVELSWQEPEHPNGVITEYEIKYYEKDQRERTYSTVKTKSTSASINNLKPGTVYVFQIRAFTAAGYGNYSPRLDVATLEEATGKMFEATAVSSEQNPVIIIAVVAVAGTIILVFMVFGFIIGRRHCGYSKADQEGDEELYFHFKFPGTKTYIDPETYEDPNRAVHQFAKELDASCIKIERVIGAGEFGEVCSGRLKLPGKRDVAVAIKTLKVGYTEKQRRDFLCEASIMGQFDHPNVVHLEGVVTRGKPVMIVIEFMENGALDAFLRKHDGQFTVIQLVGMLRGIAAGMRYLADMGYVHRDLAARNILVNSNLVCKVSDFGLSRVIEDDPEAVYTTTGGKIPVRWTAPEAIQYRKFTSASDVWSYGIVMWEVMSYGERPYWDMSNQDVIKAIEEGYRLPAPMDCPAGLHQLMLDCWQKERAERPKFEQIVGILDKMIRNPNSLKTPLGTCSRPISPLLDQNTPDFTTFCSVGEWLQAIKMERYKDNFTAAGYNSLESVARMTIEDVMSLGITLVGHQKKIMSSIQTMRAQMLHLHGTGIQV
PTK6 (Brk), sequence (Q13882 whole entry): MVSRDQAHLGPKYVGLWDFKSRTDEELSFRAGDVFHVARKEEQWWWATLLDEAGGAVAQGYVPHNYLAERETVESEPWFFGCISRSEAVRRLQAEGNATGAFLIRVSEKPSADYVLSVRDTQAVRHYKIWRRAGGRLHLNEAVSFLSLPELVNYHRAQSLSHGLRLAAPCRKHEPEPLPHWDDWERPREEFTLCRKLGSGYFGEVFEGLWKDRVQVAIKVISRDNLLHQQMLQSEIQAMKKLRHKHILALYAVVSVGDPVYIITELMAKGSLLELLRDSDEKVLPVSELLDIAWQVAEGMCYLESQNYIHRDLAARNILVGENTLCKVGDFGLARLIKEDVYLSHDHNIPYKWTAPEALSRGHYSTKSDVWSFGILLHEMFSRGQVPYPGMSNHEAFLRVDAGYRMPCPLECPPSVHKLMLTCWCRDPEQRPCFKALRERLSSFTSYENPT
ERBB4 (HER4), sequence (Q15303 26-1308): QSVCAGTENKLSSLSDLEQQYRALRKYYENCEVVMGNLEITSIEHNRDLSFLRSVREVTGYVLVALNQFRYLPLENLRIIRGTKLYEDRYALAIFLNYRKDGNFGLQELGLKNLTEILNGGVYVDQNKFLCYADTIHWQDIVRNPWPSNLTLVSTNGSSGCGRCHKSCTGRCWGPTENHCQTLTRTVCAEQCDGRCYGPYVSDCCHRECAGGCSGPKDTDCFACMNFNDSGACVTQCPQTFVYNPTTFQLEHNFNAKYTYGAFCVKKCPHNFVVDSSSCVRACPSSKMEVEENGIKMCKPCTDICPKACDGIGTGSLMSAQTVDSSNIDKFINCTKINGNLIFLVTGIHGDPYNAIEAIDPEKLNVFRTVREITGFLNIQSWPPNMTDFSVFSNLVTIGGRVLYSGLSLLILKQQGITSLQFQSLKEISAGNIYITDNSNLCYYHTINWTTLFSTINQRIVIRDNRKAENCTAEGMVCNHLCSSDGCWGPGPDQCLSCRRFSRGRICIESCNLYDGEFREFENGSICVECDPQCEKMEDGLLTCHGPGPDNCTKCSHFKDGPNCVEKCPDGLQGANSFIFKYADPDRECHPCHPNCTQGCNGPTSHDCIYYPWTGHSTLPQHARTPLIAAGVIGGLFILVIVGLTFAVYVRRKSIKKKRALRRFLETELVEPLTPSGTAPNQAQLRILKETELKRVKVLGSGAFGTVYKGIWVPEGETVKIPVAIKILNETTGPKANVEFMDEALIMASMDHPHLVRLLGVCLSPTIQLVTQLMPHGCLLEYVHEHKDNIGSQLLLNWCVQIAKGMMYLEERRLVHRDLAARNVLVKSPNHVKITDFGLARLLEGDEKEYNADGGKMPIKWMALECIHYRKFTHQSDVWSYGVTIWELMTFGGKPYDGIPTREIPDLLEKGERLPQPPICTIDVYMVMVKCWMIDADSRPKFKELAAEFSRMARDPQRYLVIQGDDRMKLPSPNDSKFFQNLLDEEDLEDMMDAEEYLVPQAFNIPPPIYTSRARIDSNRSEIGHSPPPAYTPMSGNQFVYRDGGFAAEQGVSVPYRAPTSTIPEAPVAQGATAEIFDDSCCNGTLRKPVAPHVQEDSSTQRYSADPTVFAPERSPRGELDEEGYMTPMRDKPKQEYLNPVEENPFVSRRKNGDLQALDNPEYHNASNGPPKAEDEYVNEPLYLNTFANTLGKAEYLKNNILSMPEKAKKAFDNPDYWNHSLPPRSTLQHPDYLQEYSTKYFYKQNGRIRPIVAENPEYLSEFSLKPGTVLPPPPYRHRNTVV
SRMS (Srm), sequence (Q9H3Y6 whole entry): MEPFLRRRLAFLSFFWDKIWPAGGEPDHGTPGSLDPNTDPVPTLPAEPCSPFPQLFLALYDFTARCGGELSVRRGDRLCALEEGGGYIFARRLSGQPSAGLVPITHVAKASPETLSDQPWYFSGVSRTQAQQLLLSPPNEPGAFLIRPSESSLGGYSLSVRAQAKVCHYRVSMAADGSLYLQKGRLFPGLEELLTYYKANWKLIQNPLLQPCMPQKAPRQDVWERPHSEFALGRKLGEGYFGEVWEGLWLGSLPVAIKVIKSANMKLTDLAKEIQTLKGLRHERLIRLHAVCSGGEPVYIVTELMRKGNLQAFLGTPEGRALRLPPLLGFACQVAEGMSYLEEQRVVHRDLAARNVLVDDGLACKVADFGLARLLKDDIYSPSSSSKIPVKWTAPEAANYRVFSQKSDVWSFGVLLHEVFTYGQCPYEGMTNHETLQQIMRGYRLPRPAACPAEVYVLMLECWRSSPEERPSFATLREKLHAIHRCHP

As to `COc1cc2nccc(Oc3ccc(NC(=O)C4(C(=O)Nc5ccc(F)cc5)CC4)cc3)c2cc1OC` [Cabozantinib, reference compound], the inhibition at 1 µM in test [1] came out at 35%; in [2] it was 100%; in test [3], 106%; in test [4] it was 9%; in [5] it was 35%; in test [6], 96%. The inhibition at 1 µM in test [7] worked out at 48%; in test [8], 103%; in test [9], 24%.

Turning to `COc1cc2nccc(Oc3ccc(NC(=O)C4(NC(=O)c5ccc(F)cc5)CC4)cc3F)c2cc1OC` [Cbo-02, N-(1-((4-((6,7-diMethoxyquinolin-4-yl)oxy)-3-fluorophenyl)carbamoyl)cyclopropyl)-4-fluorobenzamide], the inhibition at 1 µM in test [1] came to 12%; in [2], 51%; in test [3], 84%; in [4] it was 11%; in test [5], 31%; in [6] it was 12%. Moreover, the inhibition at 1 µM in test [7] was determined as 43%; in test [8] it was 73%; in test [9], 1%.

In the case of `COc1cc2nccc(Oc3ccc(NC(=O)C4(NC(=O)c5ccc(F)cc5)CC4)cc3F)c2cc1Oc1ccc(N)cc1F` [Cbo-10], the inhibition at 1 µM in test [1] came to 17%; in test [2] it was 50%; in [3], 98%; in [4], 9%; in [5] it was 94%; in test [6], 74%. In addition, the inhibition at 1 µM in [7] turned out to be 59%; in test [8] it was 91%; in test [9] it was 2%.

Regarding `COc1cc2nccc(Oc3ccc(NC(=O)C4(NC(=O)c5ccc(F)cc5)CC4)cc3F)c2cc1Oc1c(F)cc(N)cc1F` [Cbo-14], the inhibition at 1 µM worked out at 18% in [1]; 53% in test [2]; 101% in test [3]; 21% in [4]; 93% in test [5]; 84% in test [6]. Also, the inhibition at 1 µM was 58% in test [7], 94% in test [8] and -3% in [9].

On to `COc1cc2nccc(Oc3ccc(NC(=O)C4(C(=O)Nc5ccc(F)cc5)CC4)cc3F)c2cc1Oc1ccc(N)cc1F` [Cbo-23], for which the inhibition at 1 µM was 54% in test [1]; 92% in test [2]; 100% in [3]; 17% in test [4]; 72% in test [5]; 99% in [6]. The results for the inhibition at 1 µM in test [7], in test [8] and in test [9] were 41%, 97% and 5%, respectively.

Values taken from patent publication US20250120967A1, “TYROSINE KINASES INHIBITORS AND USES THEREOF” (GREAT NOVEL THERAPEUTICS BIOTECH & MEDICALS CORPORATION, priority 2023, published 2025).
